Laboratory results taken from ChEMBL document CHEMBL3046476, “Qsar for Acetylcholinesterase and Butyrylcholinesterase Inhibition by Cardiovascular Drugs and Benzodiazepines” (Med Chem Res, 2005).
Where a name gives a salt, the structure may show the parent alone. The source made the active and inactive calls. The calls are words filed in the database; no cut-off is given here.

Key:
[1] = biological target: Cholinesterase (Equus caballus) (UniProt P81908); assay: Reversible mixed-type inhibition of Equus caballus (horse) serum butyrylcholinesterase (BChE) assessed as inhibition of BTCh hydrolysis by Ellman method
Acetylcholinesterase = Acetylcholinesterase (Electrophorus electricus, UniProt O42275); assay: Inhibition of Electrophorus electricus (electric eel) acetylcholinesterase (AChE) assessed as inhibition of ATCh hydrolysis by Ellman method
Cholinesterase = Cholinesterase (Equus caballus, UniProt P81908); assay: Inhibition of Equus caballus (horse) serum butyrylcholinesterase (BChE) assessed as inhibition of BTCh hydrolysis by Ellman method
Cholinesterase, sequence (P81908 whole entry): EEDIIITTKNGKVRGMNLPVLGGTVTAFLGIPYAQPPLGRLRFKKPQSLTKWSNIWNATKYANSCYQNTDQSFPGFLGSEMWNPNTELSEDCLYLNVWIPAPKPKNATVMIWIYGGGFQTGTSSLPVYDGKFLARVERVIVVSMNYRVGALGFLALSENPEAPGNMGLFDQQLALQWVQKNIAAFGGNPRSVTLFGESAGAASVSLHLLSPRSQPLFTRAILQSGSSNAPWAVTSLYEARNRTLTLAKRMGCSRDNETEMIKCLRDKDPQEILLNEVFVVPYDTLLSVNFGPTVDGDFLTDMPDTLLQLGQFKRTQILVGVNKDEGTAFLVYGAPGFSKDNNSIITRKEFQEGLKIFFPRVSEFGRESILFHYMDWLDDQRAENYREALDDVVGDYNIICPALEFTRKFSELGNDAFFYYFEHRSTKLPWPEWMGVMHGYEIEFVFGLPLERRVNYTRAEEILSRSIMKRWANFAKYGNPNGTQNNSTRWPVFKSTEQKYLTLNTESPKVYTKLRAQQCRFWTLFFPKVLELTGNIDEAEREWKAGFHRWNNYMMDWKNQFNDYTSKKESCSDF

Cholinesterase (Equus caballus), sequence (P81908 whole entry): as above
Acetylcholinesterase, sequence (O42275 whole entry): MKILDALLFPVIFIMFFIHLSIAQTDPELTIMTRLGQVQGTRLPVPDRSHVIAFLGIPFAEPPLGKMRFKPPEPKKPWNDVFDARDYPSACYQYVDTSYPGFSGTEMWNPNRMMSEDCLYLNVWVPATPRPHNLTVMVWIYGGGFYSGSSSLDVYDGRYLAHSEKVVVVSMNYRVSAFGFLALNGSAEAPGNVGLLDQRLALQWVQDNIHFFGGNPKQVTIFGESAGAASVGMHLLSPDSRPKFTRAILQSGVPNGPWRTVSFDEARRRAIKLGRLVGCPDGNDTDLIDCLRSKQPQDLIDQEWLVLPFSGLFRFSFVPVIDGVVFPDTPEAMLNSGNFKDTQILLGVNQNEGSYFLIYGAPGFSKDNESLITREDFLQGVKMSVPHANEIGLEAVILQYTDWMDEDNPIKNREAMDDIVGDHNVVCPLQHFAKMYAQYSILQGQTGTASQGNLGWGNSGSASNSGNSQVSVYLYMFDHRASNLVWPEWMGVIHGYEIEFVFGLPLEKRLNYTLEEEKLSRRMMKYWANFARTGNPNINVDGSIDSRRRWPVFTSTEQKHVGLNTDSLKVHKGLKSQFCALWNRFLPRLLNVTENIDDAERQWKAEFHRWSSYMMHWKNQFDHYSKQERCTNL

## CCOC(=O)C1=C(COCCN)NC(C)=C(C(=O)OC)C1c1ccccc1Cl (centres undefined)
[1]
  inhibition: Active

## CNC1=Nc2ccc(Cl)cc2C(c2ccccc2)=[N+]([O-])C1
[1]
  inhibition: Active

## CN1C(=O)CN=C(c2ccccc2)c2cc(Cl)ccc21 [DIAZEPAM]
[1]
  inhibition: Active
Acetylcholinesterase; read-out: Ki
  Ki: 13 µM
Acetylcholinesterase; read-out: pKi (converted)
  Ki: 251 µM

## NNc1nncc2ccccc12 [HYDRALAZINE HYDROCHLORIDE]
[1]
  inhibition: Active
Acetylcholinesterase; read-out: Ki
  Ki: 7 µM
Acetylcholinesterase; read-out: pKi (converted)
  Ki: 251 µM
Cholinesterase; read-out: Ki
  Ki: 1.9 µM
Cholinesterase; read-out: pKi (converted)
  Ki: 5.01 µM

## CC[C@H](C)C(=O)O[C@H]1C[C@@H](C)C=C2C=C[C@H](C)[C@H](CC[C@@H]3C[C@@H](O)CC(=O)O3)[C@H]21 [LOVASTATIN]
[1]
  inhibition: Active
Acetylcholinesterase; read-out: Ki
  Ki: 2.7 µM
Acetylcholinesterase; read-out: pKi (converted)
  Ki: 251 µM
Cholinesterase; read-out: Ki
  Ki: 1.1 µM
Cholinesterase; read-out: pKi (converted)
  Ki: 5.01 µM

## COC(=O)C1=C(C)NC(C)=C(C(=O)OC)C1c1ccccc1[N+](=O)[O-] [NIFEDIPINE]
[1]
  inhibition: Active
Acetylcholinesterase; read-out: Ki
  Ki: 4 µM
Acetylcholinesterase; read-out: pKi (converted)
  Ki: 251 µM
Cholinesterase; read-out: Ki
  Ki: 1.2 µM
Cholinesterase; read-out: pKi (converted)
  Ki: 5.01 µM

## CCC(C)(C)C(=O)O[C@H]1C[C@@H](C)C=C2C=C[C@H](C)[C@H](CC[C@@H]3C[C@@H](O)CC(=O)O3)[C@H]21 [SIMVASTATIN]
Acetylcholinesterase; read-out: Ki
  Ki: 1.8 µM
Acetylcholinesterase; read-out: pKi (converted)
  Ki: 251 µM
Cholinesterase; read-out: Ki
  Ki: 0.75 µM
Cholinesterase; read-out: pKi (converted)
  Ki: 5.01 µM
